Data published in ChEMBL document CHEMBL2331489, “Novel cinnoline-based inhibitors of LRRK2 kinase activity” (Bioorg Med Chem Lett, 2013).

Molecular target: Dual specificity tyrosine-phosphorylation-regulated kinase 1B (Homo sapiens) (UniProt Q9Y463)
Experiment: Inhibition of DYRK1B (unknown origin) at 10 uM relative to control

inhibition [%]	Structure (SMILES)
20	CS(=O)(=O)c1ccc(-c2ccc3c(NC4CCC4)c(C(N)=O)nnc3c2)cc1
97	CC(C)Nc1c(C(N)=O)nnc2ccc(-c3cn[nH]c3)cc12

Molecular target: Glycogen synthase kinase-3 beta (Homo sapiens) (UniProt P49841)
Experiment: Inhibition of GSK3beta (unknown origin) at 10 uM relative to control

inhibition [%]	Structure (SMILES)
17	CS(=O)(=O)c1ccc(-c2ccc3c(NC4CCC4)c(C(N)=O)nnc3c2)cc1
95	CC(C)Nc1c(C(N)=O)nnc2ccc(-c3cn[nH]c3)cc12

Molecular target: Serine/threonine-protein kinase PAK 4 (Homo sapiens) (UniProt O96013)
Experiment: Inhibition of PAK4 (unknown origin) at 10 uM relative to control

inhibition [%]	Structure (SMILES)
43	CS(=O)(=O)c1ccc(-c2ccc3c(NC4CCC4)c(C(N)=O)nnc3c2)cc1
81	CC(C)Nc1c(C(N)=O)nnc2ccc(-c3cn[nH]c3)cc12

Molecular target: Platelet-derived growth factor receptor alpha (Homo sapiens, UniProt P16234)
Sequence (P16234 whole entry): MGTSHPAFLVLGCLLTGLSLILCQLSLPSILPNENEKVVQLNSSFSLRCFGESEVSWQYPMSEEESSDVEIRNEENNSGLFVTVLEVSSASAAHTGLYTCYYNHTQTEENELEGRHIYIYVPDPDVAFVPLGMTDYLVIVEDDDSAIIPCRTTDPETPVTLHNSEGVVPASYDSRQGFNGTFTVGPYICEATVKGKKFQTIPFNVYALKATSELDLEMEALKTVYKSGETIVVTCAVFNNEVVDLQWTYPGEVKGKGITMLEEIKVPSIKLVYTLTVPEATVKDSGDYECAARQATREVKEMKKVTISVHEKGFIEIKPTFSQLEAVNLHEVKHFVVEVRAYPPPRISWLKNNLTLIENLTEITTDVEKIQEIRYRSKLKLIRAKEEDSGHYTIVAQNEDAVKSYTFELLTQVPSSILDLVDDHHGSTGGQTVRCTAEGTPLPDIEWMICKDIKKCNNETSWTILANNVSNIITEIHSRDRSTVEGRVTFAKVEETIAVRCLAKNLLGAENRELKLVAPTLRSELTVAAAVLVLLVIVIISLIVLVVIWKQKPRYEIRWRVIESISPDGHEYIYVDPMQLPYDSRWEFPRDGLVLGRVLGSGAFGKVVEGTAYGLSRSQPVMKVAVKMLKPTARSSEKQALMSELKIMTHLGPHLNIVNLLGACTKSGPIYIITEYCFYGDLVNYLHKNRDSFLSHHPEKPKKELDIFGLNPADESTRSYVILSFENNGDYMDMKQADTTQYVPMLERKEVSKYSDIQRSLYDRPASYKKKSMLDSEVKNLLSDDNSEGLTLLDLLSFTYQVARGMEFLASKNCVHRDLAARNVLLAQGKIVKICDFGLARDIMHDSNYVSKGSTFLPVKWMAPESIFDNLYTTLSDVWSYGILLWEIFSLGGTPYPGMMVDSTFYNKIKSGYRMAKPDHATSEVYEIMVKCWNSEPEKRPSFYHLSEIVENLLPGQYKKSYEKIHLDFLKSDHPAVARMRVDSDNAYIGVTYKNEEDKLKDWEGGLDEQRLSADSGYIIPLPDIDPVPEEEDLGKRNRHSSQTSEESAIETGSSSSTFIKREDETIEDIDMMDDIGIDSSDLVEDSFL
Experiment: Inhibition of PDGFRalpha (unknown origin) at 10 uM relative to control

inhibition [%]	Structure (SMILES)
94	CS(=O)(=O)c1ccc(-c2ccc3c(NC4CCC4)c(C(N)=O)nnc3c2)cc1
101	CC(C)Nc1c(C(N)=O)nnc2ccc(-c3cn[nH]c3)cc12

Molecular target: Insulin receptor (Homo sapiens) (UniProt P06213)
Experiment: Inhibition of INSR (unknown origin) at 10 uM relative to control

inhibition [%]	Structure (SMILES)
7	CS(=O)(=O)c1ccc(-c2ccc3c(NC4CCC4)c(C(N)=O)nnc3c2)cc1
39	CC(C)Nc1c(C(N)=O)nnc2ccc(-c3cn[nH]c3)cc12

Molecular target: Tyrosine-protein kinase JAK1 (Homo sapiens) (UniProt P23458)
Experiment: Inhibition of JAK1 (unknown origin) at 10 uM relative to control

inhibition [%]	Structure (SMILES)
55	CS(=O)(=O)c1ccc(-c2ccc3c(NC4CCC4)c(C(N)=O)nnc3c2)cc1
90	CC(C)Nc1c(C(N)=O)nnc2ccc(-c3cn[nH]c3)cc12

Molecular target: T1, Aurora kinase A (Homo sapiens) (UniProt O14965)
T1 sequence (whole entry): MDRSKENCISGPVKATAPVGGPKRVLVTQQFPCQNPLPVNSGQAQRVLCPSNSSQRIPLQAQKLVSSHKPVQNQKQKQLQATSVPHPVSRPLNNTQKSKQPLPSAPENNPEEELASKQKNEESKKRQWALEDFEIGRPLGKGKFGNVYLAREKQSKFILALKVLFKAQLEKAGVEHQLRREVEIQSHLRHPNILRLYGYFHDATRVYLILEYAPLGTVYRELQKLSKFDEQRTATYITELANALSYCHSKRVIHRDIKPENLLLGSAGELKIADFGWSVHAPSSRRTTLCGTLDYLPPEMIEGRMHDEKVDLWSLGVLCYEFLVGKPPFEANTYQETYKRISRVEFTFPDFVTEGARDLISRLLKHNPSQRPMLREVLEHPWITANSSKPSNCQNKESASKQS
Experiment: Inhibition of Aurora A (unknown origin) at 10 uM relative to control

inhibition [%]	Structure (SMILES)
34	CS(=O)(=O)c1ccc(-c2ccc3c(NC4CCC4)c(C(N)=O)nnc3c2)cc1
100	CC(C)Nc1c(C(N)=O)nnc2ccc(-c3cn[nH]c3)cc12

Molecular target: Receptor tyrosine-protein kinase erbB-4 (Homo sapiens) (UniProt Q15303)
Experiment: Inhibition of ERBB4 (unknown origin) at 10 uM relative to control

inhibition [%]	Structure (SMILES)
4	CS(=O)(=O)c1ccc(-c2ccc3c(NC4CCC4)c(C(N)=O)nnc3c2)cc1
38	CC(C)Nc1c(C(N)=O)nnc2ccc(-c3cn[nH]c3)cc12

Molecular target: Cyclin-dependent kinase 5/CDK5 activator 1 (Homo sapiens) (UniProt Q00535+Q15078)
Experiment: Inhibition of CDK5/P25 (unknown origin) at 10 uM relative to control
Assay type: protein-complex assay

inhibition [%]	Structure (SMILES)
-1	CS(=O)(=O)c1ccc(-c2ccc3c(NC4CCC4)c(C(N)=O)nnc3c2)cc1
97	CC(C)Nc1c(C(N)=O)nnc2ccc(-c3cn[nH]c3)cc12

Molecular target: RAF proto-oncogene serine/threonine-protein kinase (Homo sapiens) (UniProt P04049)
Experiment: Inhibition of RAF1 (unknown origin) at 10 uM relative to control

inhibition [%]	Structure (SMILES)
38	CS(=O)(=O)c1ccc(-c2ccc3c(NC4CCC4)c(C(N)=O)nnc3c2)cc1
88	CC(C)Nc1c(C(N)=O)nnc2ccc(-c3cn[nH]c3)cc12

Molecular target: PI3-kinase p110-alpha/p85-alpha (Homo sapiens) (UniProt P27986+P42336)
Experiment: Inhibition of PIK3CA/PIK3R1 (unknown origin) at 10 uM relative to control
Assay type: protein-complex assay

inhibition [%]	Structure (SMILES)
2	CS(=O)(=O)c1ccc(-c2ccc3c(NC4CCC4)c(C(N)=O)nnc3c2)cc1
95	CC(C)Nc1c(C(N)=O)nnc2ccc(-c3cn[nH]c3)cc12

Molecular target: Receptor-interacting serine/threonine-protein kinase 2 (Homo sapiens) (UniProt O43353)
Experiment: Inhibition of RIPK2 (unknown origin) at 10 uM relative to control

inhibition [%]	Structure (SMILES)
15	CS(=O)(=O)c1ccc(-c2ccc3c(NC4CCC4)c(C(N)=O)nnc3c2)cc1
98	CC(C)Nc1c(C(N)=O)nnc2ccc(-c3cn[nH]c3)cc12

Molecular target: Protein-tyrosine kinase 2-beta (Homo sapiens) (UniProt Q14289)
Experiment: Inhibition of FAK2 (unknown origin) at 10 uM relative to control

inhibition [%]	Structure (SMILES)
28	CS(=O)(=O)c1ccc(-c2ccc3c(NC4CCC4)c(C(N)=O)nnc3c2)cc1
70	CC(C)Nc1c(C(N)=O)nnc2ccc(-c3cn[nH]c3)cc12

Molecular target: Leucine-rich repeat serine/threonine-protein kinase 2 (Homo sapiens, UniProt Q5S007)
Sequence (Q5S007 whole entry): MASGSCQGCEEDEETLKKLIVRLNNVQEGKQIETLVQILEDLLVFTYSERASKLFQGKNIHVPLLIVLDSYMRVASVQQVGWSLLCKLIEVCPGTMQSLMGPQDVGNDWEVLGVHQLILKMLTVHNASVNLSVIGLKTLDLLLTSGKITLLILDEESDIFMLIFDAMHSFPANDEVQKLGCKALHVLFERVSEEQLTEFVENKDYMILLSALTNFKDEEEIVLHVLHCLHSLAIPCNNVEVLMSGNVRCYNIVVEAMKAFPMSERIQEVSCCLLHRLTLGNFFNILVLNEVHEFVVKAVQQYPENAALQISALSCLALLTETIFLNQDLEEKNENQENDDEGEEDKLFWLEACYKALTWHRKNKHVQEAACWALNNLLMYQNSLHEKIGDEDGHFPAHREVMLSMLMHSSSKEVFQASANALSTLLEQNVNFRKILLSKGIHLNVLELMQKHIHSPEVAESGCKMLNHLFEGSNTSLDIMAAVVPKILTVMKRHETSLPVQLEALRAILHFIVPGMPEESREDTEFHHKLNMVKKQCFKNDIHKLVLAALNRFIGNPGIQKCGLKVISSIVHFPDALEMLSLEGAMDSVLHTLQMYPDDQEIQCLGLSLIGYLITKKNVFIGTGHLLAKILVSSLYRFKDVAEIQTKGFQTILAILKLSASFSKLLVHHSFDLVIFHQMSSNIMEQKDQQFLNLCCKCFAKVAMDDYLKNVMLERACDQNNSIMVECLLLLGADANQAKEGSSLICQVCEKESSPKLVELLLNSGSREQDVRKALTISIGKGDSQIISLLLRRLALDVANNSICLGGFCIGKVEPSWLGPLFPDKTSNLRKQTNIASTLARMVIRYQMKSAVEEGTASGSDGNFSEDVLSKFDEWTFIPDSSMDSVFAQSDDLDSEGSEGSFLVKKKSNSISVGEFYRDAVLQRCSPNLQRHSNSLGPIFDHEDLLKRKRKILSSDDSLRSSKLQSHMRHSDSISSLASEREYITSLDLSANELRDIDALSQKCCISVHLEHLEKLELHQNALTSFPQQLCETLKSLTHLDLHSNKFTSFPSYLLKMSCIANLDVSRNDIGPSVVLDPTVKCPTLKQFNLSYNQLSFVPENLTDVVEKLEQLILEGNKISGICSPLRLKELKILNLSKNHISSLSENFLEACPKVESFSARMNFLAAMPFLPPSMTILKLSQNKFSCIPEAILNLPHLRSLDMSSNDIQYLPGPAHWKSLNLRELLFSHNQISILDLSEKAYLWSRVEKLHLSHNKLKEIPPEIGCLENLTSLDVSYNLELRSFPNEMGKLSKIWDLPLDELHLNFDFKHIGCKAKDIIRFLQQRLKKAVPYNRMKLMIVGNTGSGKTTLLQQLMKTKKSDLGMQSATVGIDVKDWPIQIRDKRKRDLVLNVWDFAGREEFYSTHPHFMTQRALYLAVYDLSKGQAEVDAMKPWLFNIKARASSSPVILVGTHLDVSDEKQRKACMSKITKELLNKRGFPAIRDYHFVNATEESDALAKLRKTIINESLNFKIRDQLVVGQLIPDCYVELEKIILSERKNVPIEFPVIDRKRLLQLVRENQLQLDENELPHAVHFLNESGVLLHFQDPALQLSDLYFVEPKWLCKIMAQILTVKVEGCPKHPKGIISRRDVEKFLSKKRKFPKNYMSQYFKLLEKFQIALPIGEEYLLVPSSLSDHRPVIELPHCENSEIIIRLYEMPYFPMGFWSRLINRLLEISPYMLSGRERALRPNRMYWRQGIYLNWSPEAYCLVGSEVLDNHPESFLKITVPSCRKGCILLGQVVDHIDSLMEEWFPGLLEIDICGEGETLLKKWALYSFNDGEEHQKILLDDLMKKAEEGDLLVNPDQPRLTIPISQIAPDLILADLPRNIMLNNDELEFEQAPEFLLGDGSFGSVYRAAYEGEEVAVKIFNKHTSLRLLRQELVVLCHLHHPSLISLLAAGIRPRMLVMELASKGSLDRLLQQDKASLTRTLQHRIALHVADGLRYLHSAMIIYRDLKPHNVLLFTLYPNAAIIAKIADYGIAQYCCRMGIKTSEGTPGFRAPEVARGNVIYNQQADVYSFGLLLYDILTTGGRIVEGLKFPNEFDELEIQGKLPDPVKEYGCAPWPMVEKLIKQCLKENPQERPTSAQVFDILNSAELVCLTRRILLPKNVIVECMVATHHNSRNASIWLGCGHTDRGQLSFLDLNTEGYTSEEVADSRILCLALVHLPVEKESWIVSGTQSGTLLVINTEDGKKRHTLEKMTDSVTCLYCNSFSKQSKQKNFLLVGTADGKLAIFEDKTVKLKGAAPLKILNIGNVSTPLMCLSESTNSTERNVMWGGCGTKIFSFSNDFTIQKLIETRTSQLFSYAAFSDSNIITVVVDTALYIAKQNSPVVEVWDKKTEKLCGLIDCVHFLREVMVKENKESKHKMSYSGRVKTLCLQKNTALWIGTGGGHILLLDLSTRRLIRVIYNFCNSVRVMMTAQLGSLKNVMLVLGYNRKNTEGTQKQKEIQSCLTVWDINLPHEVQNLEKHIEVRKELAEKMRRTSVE
Experiment: Inhibition of LRRK2 (unknown origin) at 10 uM relative to control

inhibition [%]	Structure (SMILES)
97	CS(=O)(=O)c1ccc(-c2ccc3c(NC4CCC4)c(C(N)=O)nnc3c2)cc1
96	CC(C)Nc1c(C(N)=O)nnc2ccc(-c3cn[nH]c3)cc12

Molecular target: Macrophage colony-stimulating factor 1 receptor (Homo sapiens, UniProt P07333)
Experiment: Inhibition of CSF1R (unknown origin) at 10 uM relative to control

inhibition [%]	Structure (SMILES)
100	CS(=O)(=O)c1ccc(-c2ccc3c(NC4CCC4)c(C(N)=O)nnc3c2)cc1
96	CC(C)Nc1c(C(N)=O)nnc2ccc(-c3cn[nH]c3)cc12

Molecular target: Serine/threonine-protein kinase 16 (Homo sapiens) (UniProt O75716)
Sequence (O75716 whole entry): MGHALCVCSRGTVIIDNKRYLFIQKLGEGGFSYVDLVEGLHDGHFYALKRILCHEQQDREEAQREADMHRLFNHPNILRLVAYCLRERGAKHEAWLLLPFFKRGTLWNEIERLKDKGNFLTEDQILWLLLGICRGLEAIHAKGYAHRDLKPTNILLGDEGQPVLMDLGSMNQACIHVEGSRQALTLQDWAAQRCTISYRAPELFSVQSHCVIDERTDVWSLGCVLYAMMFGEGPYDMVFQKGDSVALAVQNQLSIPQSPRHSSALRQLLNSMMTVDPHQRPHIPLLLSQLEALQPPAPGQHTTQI
Experiment: Inhibition of STK16 (unknown origin) at 10 uM relative to control

inhibition [%]	Structure (SMILES)
44	CS(=O)(=O)c1ccc(-c2ccc3c(NC4CCC4)c(C(N)=O)nnc3c2)cc1
84	CC(C)Nc1c(C(N)=O)nnc2ccc(-c3cn[nH]c3)cc12

Molecular target: Serine/threonine-protein kinase PLK2 (Homo sapiens) (UniProt Q9NYY3)
Experiment: Inhibition of PLK2 (unknown origin) at 10 uM relative to control

inhibition [%]	Structure (SMILES)
11	CS(=O)(=O)c1ccc(-c2ccc3c(NC4CCC4)c(C(N)=O)nnc3c2)cc1
80	CC(C)Nc1c(C(N)=O)nnc2ccc(-c3cn[nH]c3)cc12

Molecular target: Mitogen-activated protein kinase 10 (Homo sapiens) (UniProt P53779)
Experiment: Inhibition of MAPK10 (unknown origin) at 10 uM relative to control

inhibition [%]	Structure (SMILES)
21	CS(=O)(=O)c1ccc(-c2ccc3c(NC4CCC4)c(C(N)=O)nnc3c2)cc1
93	CC(C)Nc1c(C(N)=O)nnc2ccc(-c3cn[nH]c3)cc12

Molecular target: Rho-associated protein kinase 2 (Homo sapiens) (UniProt O75116)
Experiment: Inhibition of ROCK2 (unknown origin) at 10 uM relative to control

inhibition [%]	Structure (SMILES)
53	CS(=O)(=O)c1ccc(-c2ccc3c(NC4CCC4)c(C(N)=O)nnc3c2)cc1
99	CC(C)Nc1c(C(N)=O)nnc2ccc(-c3cn[nH]c3)cc12

Molecular target: Serine/threonine-protein kinase PLK1 (Homo sapiens) (UniProt P53350)
Experiment: Inhibition of PLK1 (unknown origin) at 10 uM relative to control

inhibition [%]	Structure (SMILES)
14	CS(=O)(=O)c1ccc(-c2ccc3c(NC4CCC4)c(C(N)=O)nnc3c2)cc1
45	CC(C)Nc1c(C(N)=O)nnc2ccc(-c3cn[nH]c3)cc12

Molecular target: Tyrosine-protein kinase ABL1 (Homo sapiens) (UniProt P00519)
Experiment: Inhibition of ABL1 (unknown origin) at 10 uM relative to control

inhibition [%]	Structure (SMILES)
46	CS(=O)(=O)c1ccc(-c2ccc3c(NC4CCC4)c(C(N)=O)nnc3c2)cc1
97	CC(C)Nc1c(C(N)=O)nnc2ccc(-c3cn[nH]c3)cc12

Molecular target: Serine/threonine-protein kinase MARK2 (Homo sapiens) (UniProt Q7KZI7)
Experiment: Inhibition of MARK2 (unknown origin) at 10 uM relative to control

inhibition [%]	Structure (SMILES)
53	CS(=O)(=O)c1ccc(-c2ccc3c(NC4CCC4)c(C(N)=O)nnc3c2)cc1
87	CC(C)Nc1c(C(N)=O)nnc2ccc(-c3cn[nH]c3)cc12

Molecular target: Protein kinase C beta type (Homo sapiens) (UniProt P05771)
Sequence (P05771 2-671 limits assumed): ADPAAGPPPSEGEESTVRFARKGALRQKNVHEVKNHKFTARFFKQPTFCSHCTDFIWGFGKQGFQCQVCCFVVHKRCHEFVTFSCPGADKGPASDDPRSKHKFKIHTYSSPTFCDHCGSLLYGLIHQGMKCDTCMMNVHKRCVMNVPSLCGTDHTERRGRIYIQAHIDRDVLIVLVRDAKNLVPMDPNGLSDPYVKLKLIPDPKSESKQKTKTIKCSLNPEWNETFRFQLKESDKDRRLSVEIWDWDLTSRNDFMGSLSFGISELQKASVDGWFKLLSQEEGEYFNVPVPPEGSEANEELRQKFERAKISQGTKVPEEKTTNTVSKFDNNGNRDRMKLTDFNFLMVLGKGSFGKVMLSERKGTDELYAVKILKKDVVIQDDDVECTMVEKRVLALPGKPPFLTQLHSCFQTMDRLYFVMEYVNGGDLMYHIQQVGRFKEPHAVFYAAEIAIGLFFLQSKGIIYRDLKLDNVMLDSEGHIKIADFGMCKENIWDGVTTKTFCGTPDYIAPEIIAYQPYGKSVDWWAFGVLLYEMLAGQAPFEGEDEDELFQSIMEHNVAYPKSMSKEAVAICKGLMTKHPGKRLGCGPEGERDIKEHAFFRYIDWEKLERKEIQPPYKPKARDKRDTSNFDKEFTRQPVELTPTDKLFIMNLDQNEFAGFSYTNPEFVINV
Experiment: Inhibition of PRKCbeta1 (unknown origin) at 10 uM relative to control

inhibition [%]	Structure (SMILES)
-2	CS(=O)(=O)c1ccc(-c2ccc3c(NC4CCC4)c(C(N)=O)nnc3c2)cc1
40	CC(C)Nc1c(C(N)=O)nnc2ccc(-c3cn[nH]c3)cc12

Molecular target: Mitogen-activated protein kinase 1 (Homo sapiens) (UniProt P28482)
Sequence (P28482 whole entry): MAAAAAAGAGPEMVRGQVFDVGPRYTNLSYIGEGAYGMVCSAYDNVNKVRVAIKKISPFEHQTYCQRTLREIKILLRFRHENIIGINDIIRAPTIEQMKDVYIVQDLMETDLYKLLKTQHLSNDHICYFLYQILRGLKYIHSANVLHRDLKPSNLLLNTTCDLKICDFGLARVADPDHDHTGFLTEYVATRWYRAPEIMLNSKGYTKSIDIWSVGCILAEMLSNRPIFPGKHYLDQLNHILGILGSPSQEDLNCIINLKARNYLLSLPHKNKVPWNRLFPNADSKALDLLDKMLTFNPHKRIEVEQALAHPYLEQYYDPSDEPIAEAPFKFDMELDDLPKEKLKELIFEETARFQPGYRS
Experiment: Inhibition of MAPK1 (unknown origin) at 10 uM relative to control

inhibition [%]	Structure (SMILES)
3	CS(=O)(=O)c1ccc(-c2ccc3c(NC4CCC4)c(C(N)=O)nnc3c2)cc1
63	CC(C)Nc1c(C(N)=O)nnc2ccc(-c3cn[nH]c3)cc12

Molecular target: Tyrosine-protein kinase SYK (Homo sapiens) (UniProt P43405)
Experiment: Inhibition of SYK (unknown origin) at 10 uM relative to control

inhibition [%]	Structure (SMILES)
79	CS(=O)(=O)c1ccc(-c2ccc3c(NC4CCC4)c(C(N)=O)nnc3c2)cc1
97	CC(C)Nc1c(C(N)=O)nnc2ccc(-c3cn[nH]c3)cc12

Molecular target: Calcium/calmodulin-dependent protein kinase type II subunit alpha (Homo sapiens) (UniProt Q9UQM7)
Experiment: Inhibition of CAMK2alpha (unknown origin) at 10 uM relative to control

inhibition [%]	Structure (SMILES)
11	CS(=O)(=O)c1ccc(-c2ccc3c(NC4CCC4)c(C(N)=O)nnc3c2)cc1
92	CC(C)Nc1c(C(N)=O)nnc2ccc(-c3cn[nH]c3)cc12

Molecular target: RAC-alpha serine/threonine-protein kinase (Homo sapiens) (UniProt P31749)
Experiment: Inhibition of AKT1 (unknown origin) at 10 uM relative to control

inhibition [%]	Structure (SMILES)
5	CS(=O)(=O)c1ccc(-c2ccc3c(NC4CCC4)c(C(N)=O)nnc3c2)cc1
32	CC(C)Nc1c(C(N)=O)nnc2ccc(-c3cn[nH]c3)cc12
